Consider 26 compounds from patent US20090149458A1, “PYRROLO[3,2-d]PYRIMIDINE COMPOUNDS AND THEIR USE AS PI3 KINASE AND mTOR KINASE INHIBITORS” (Wyeth, priority 2007, published 2009).

A value given as a limit tells only on which side of the number the result lay.

What all share (type): biochemical
The target in one test is T1, human TOR (Homo sapiens, UniProt P42345).
T1 construct: FLAG
The experiment in a line: human TOR kinase assay with purified enzyme, DELFIA format.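 Also: 2 h kinase reaction at room temperature, phosphorylation of S6K at T389 detected with a europium-labelled antibody after plate capture, DMSO vehicle as control.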 The conditions noted are these: FLAG-TOR, 100 μM ATP, His6-S6K substrate.

The target of the next test is PI3 Kinase α (Homo sapiens, UniProt P42336). The test can be described thus: PI3K fluorescence polarization assay (PI3 Kinase α).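 Also: enzyme reaction with inhibitor or DMSO control, 30–60 min at room temperature, stopped by EDTA, then TAMRA detector with GST-GRP fluorescence polarization read after 90–110 min.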 The conditions noted are these: 20 uM PIP2, 25 uM ATP. Background: In fluorescence polarisation assays a small probe gives low polarisation when free and higher when bound to something large.
PI3 Kinase α, sequence (P42336 whole entry): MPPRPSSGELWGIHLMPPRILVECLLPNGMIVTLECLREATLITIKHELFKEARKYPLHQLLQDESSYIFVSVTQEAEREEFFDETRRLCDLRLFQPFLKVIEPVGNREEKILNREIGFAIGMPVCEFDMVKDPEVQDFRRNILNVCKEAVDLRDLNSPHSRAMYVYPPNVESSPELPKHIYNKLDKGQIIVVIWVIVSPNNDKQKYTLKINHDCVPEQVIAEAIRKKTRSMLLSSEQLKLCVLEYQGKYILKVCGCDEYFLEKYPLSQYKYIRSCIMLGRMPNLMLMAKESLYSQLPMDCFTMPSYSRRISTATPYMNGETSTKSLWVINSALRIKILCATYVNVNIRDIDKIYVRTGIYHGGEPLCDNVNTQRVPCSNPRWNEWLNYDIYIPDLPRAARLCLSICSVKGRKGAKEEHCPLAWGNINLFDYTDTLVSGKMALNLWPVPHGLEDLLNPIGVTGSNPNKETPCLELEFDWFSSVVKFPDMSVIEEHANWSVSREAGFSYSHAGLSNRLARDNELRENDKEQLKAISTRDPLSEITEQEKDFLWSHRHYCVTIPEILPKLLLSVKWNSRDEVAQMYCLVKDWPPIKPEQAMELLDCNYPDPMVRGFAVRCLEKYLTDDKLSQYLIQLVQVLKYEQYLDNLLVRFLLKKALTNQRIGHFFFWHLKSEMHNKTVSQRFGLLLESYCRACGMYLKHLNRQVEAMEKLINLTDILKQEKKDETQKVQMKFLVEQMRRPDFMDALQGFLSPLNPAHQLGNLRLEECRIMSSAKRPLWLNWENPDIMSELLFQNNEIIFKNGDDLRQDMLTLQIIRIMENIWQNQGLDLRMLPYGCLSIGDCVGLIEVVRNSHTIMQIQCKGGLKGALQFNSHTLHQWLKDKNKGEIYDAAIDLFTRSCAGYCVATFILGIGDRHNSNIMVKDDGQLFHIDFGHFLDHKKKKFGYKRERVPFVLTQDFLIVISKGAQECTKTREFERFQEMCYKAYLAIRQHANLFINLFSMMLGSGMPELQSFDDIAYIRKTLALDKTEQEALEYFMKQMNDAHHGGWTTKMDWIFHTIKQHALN
PI3 Kinase α, sequence (P27986 whole entry partner): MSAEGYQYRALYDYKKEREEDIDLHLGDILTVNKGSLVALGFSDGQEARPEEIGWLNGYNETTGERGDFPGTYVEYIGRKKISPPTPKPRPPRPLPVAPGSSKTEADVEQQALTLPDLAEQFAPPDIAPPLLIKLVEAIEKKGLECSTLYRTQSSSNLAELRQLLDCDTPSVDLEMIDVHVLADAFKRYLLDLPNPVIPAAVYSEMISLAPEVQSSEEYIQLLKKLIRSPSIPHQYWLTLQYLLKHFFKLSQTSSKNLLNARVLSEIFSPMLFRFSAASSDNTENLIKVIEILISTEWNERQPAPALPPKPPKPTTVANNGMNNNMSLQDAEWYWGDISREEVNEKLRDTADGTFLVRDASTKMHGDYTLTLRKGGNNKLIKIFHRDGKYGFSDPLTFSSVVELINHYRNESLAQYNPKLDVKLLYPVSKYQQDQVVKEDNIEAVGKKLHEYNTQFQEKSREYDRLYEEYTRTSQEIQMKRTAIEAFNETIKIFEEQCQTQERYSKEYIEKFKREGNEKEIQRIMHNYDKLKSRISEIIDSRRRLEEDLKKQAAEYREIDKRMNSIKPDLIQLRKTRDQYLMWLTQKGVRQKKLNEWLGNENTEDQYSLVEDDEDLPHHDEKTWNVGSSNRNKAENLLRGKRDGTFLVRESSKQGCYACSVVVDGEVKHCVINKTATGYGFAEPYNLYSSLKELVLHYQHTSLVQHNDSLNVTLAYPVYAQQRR
A further test has as its target PI3 Kinase γ (Homo sapiens, UniProt P48736). The experiment in a line: PI3K fluorescence polarization assay (PI3 Kinase γ). The settings on record: 20 uM PIP2, 25 uM ATP. The protocol: Buffers: Reaction Buffer: 20 mM HEPES pH7.5, 2 mM MgCl2, 0.05% CHAPS, and 0.01% bME (added fresh); STOP/detection Buffer: 100 mM HEPES pH7.5, 4 mM EDTA, 0.05% CHAPS. STOCKS: ATP 20 mM in H2O; PIP2 (diC8, Echelon cat# P-4508) 1 mM in H2O MW=856.5; GST-murine GRP 1.5 mg/ml in 17% glycerol; Red detector probe-Echelon (TAMRA) 2.5 uM. Plate: Nunc 384 well black polypropylene fluor. Plate.
Assay: The assay is run by putting 9.5 ul of freshly diluted enzyme (in “reaction buffer”) per well, then 0.5 ul of diluted drug or DMSO mixing. Then 10 ul of substrate is added to start the reaction. The mixture is incubated 30-60 minutes, room temp, then stopped with 20 ul of stop/detector mix. The substrate solution, is 40 μM PIP2 and 50 uM ATP in reaction buffer. Addition of 10 ul of substrate to each well starts the reaction. This is 20 uM PIP2, 25 uM ATP final in reaction.
Stop/detector mix: 10 nM TAMRA detector, 40 nM GST-GRP in STOP/detection buffer. To stop reaction: add 20 ul Stop/detector mix per well and mix well. Wait 90-110 minutes before reading plate. Plates are read on Perkin-Elmer Envision plate readers with filters for Tamra. Keep Red probe solutions dark. This procedure is adapted from Echelon Biosciences Inc procedure for their PI3-Kinase fluorescence polarization activity Assay kit Product number K-1100.

PI3 Kinase γ, sequence (P48736 whole entry): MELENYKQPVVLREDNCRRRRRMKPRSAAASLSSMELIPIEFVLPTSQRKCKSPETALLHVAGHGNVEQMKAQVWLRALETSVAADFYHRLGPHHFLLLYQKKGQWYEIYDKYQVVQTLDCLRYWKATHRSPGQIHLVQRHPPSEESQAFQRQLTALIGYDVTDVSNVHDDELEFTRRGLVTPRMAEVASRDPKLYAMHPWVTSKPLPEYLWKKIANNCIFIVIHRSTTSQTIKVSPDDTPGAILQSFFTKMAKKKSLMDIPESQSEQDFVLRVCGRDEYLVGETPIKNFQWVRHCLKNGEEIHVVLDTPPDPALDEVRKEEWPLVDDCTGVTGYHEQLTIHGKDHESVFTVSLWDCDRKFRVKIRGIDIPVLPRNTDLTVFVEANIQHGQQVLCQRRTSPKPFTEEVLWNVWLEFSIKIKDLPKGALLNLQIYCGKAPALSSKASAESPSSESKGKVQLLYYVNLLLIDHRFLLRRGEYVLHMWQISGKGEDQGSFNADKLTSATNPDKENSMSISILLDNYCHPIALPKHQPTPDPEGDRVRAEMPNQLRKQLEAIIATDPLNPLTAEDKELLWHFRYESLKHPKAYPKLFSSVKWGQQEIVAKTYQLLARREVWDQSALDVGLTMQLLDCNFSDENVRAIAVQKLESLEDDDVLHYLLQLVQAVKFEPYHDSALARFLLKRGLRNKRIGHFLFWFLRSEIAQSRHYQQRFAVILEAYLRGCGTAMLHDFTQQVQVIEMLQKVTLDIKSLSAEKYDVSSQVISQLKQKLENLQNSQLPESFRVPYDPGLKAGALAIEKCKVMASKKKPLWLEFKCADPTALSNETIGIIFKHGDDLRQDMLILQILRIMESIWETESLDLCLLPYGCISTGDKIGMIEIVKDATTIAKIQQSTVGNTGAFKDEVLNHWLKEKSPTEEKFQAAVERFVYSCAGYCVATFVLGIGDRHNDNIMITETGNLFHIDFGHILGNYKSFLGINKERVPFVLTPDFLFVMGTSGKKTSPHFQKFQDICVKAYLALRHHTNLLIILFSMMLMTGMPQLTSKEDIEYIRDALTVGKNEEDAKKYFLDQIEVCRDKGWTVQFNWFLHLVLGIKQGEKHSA

Turning to `c1ccc(COc2cccc(-c3nc(N4CCOCC4)c4[nH]ccc4n3)c2)cc1` [Example 1, 2-[3-(benzyloxy)phenyl]-4-morpholin-4-yl-5H-pyrrolo[3,2-d]pyrimidine], the IC50 (usually the concentration that gives 50% inhibition) against human TOR was > 4000 nM; at PI3 Kinase α, 950 nM; at PI3 Kinase γ it was 443 nM.
Regarding `Oc1cccc(-c2nc(N3CCOCC3)c3[nH]ccc3n2)c1` [Example 2, 3-(4-morpholin-4-yl-5H-pyrrolo[3,2-d]pyrimidin-2-yl)phenol], the IC50 on PI3 Kinase γ was 164 nM.
With `OCc1cccc(-c2nc(N3CCOCC3)c3[nH]ccc3n2)c1` [Example 3, [3-(4-morpholin-4-yl-5H-pyrrolo[3,2-d]pyrimidin-2-yl)phenyl]methanol], the IC50 against PI3 Kinase γ stood at 918 nM.
Regarding `Cc1cccc(-c2nc(N3CCOCC3)c3[nH]ccc3n2)c1` [Example 4, 2-(3-methylphenyl)-4-morpholin-4-yl-5H-pyrrolo[3,2-d]pyrimidine], the values for the IC50 at human TOR and against PI3 Kinase γ were 5000 nM and > 8700 nM, respectively.
Consider `Nc1cccc(-c2nc(N3CCOCC3)c3[nH]ccc3n2)c1` [Example 5, 3-(4-morpholin-4-yl-5H-pyrrolo[3,2-d]pyrimidin-2-yl)aniline], for which the figures for the IC50 on human TOR and on PI3 Kinase γ were 430 nM and 8000 nM, respectively.
For `CNC(=O)Nc1ccc(-c2nc(N3CCOCC3)c3[nH]ccc3n2)cc1` [Example 6, 1-methyl-3-[4-(4-morpholin-4-yl-5H-pyrrolo[3,2-d]pyrimidin-2-yl)phenyl]urea], the IC50 on human TOR stood at 220 nM; at PI3 Kinase α, 2670 nM; at PI3 Kinase γ, 4980 nM.
The compound `OCc1cccc(-c2nc(N3CCOCC3)c3[nH]cc(CN4CCCC4)c3n2)c1` [Example 7, {3-[4-morpholin-4-yl-7-(pyrrolidin-1-ylmethyl)-5H-pyrrolo[3,2-d]pyrimidin-2-yl]phenyl}methanol] came in with an IC50 against PI3 Kinase γ of 1120 nM.
Consider `OCc1cccc(-c2nc(N3CCOCC3)c3[nH]cc(CNCCN4CCCCC4)c3n2)c1` [Example 8, [3-(4-morpholin-4-yl-7-{[(2-piperidin-1-ylethyl)amino]methyl}-5H-pyrrolo[3,2-d]pyrimidin-2-yl)phenyl]methanol], for which the IC50 against human TOR worked out at 11100 nM; against PI3 Kinase α, 72 nM; at PI3 Kinase γ, 4280 nM.
Regarding `OCc1cccc(-c2nc(N3CCOCC3)c3[nH]cc(CNCc4cccnc4)c3n2)c1` [Example 9, [3-(4-morpholin-4-yl-7-{[(pyridin-3-ylmethyl)amino]methyl}-5H-pyrrolo[3,2-d]pyrimidin-2-yl)phenyl]methanol], the IC50 on human TOR worked out at 5500 nM; on PI3 Kinase α, 74 nM; against PI3 Kinase γ, 2870 nM.
Take `CN1CCN(Cc2c[nH]c3c(N4CCOCC4)nc(-c4cccc(CO)c4)nc23)CC1` [Example 10]: the results for the IC50 at human TOR, against PI3 Kinase α and at PI3 Kinase γ were 7850 nM, 62 nM and 2020 nM, respectively.
As to `OCc1cccc(-c2nc(N3CCOCC3)c3[nH]cc(CN4CCNCC4)c3n2)c1` [Example 11, {3-[4-morpholin-4-yl-7-(piperazin-1-ylmethyl)-5H-pyrrolo[3,2-d]pyrimidin-2-yl]phenyl}methanol], the IC50 worked out at 4300 nM against human TOR, 30 nM against PI3 Kinase α and 510 nM at PI3 Kinase γ.
Take `CN(C)Cc1c[nH]c2c(N3CCOCC3)nc(-c3cccc(CO)c3)nc12` [Example 12]: the IC50 against PI3 Kinase γ is 561 nM.
As to `CCN(CC)Cc1c[nH]c2c(N3CCOCC3)nc(-c3cccc(CO)c3)nc12` [Example 13], the values for the IC50 against human TOR, against PI3 Kinase α and against PI3 Kinase γ were 260 nM, 28 nM and 818 nM, respectively.
For `OCc1cccc(-c2nc(N3CCOCC3)c3[nH]cc(CN4CCN(c5ncccn5)CC4)c3n2)c1` [Example 14], in that order: 2200 nM, 89 nM and 4510 nM.
In the case of `OCc1cccc(-c2nc(N3CCOCC3)c3[nH]cc(CN4CCN(Cc5ccccc5)CC4)c3n2)c1` [Example 15], the IC50 against human TOR worked out at 5800 nM; at PI3 Kinase α, 240 nM; against PI3 Kinase γ, 2390 nM.
With `Oc1cccc(-c2nc(N3CCOCC3)c3[nH]cc(CNCc4cccnc4)c3n2)c1` [Example 16, 3-(4-morpholin-4-yl-7-{[(pyridin-3-ylmethyl)amino]methyl}-5H-pyrrolo[3,2-d]pyrimidin-2-yl)phenol], the IC50 against human TOR is > 4000 nM; on PI3 Kinase α, 180 nM; on PI3 Kinase γ, 3030 nM.
On the same counts, the results for `Oc1cccc(-c2nc(N3CCOCC3)c3[nH]cc(CN4CCCC4)c3n2)c1` [Example 17, 3-[4-morpholin-4-yl-7-(pyrrolidin-1-ylmethyl)-5H-pyrrolo[3,2-d]pyrimidin-2-yl]phenol] are 3250 nM, 105 nM and 1560 nM.
With `CN(C)Cc1c[nH]c2c(N3CCOCC3)nc(-c3cccc(O)c3)nc12` [Example 18, 3-{7-[(dimethylamino)methyl]-4-morpholin-4-yl-5H-pyrrolo[3,2-d]pyrimidin-2-yl}phenol], the IC50 against human TOR came out at 3300 nM; on PI3 Kinase α it was 74 nM; against PI3 Kinase γ it was 1150 nM.
On to `CCN(CC)Cc1c[nH]c2c(N3CCOCC3)nc(-c3cccc(O)c3)nc12` [Example 19, 3-{7-[(diethylamino)methyl]-4-morpholin-4-yl-5H-pyrrolo[3,2-d]pyrimidin-2-yl}phenol], for which the IC50 was 3100 nM at human TOR, 132 nM against PI3 Kinase α and 1820 nM at PI3 Kinase γ.
For `Oc1cccc(-c2nc(N3CCOCC3)c3[nH]cc(CN4CCN(c5ncccn5)CC4)c3n2)c1` [Example 20, 3-{4-morpholin-4-yl-7-[(4-pyrimidin-2-ylpiperazin-1-yl)methyl]-5H-pyrrolo[3,2-d]pyrimidin-2-yl}phenol], in that order: 2000 nM, 424 nM and 6700 nM.
`Oc1cccc(-c2nc(N3CCOCC3)c3[nH]cc(C4CCNCC4)c3n2)c1` [Example 22, 3-(4-morpholin-4-yl-7-piperidin-4-yl-5H-pyrrolo[3,2-d]pyrimidin-2-yl)phenol] registered an IC50 against PI3 Kinase γ of 1070 nM.
Still for that read-out and setting: next, `Oc1cccc(-c2nc(N3CCOCC3)c3[nH]cc(C4CCN(Cc5ccc(F)cc5)CC4)c3n2)c1` [Example 23, 3-{7-[1-(4-fluorobenzyl)piperidin-4-yl]-4-morpholin-4-yl-5H-pyrrolo[3,2-d]pyrimidin-2-yl}phenol]: 1070 nM; `Oc1cccc(-c2nc(N3CCOCC3)c3[nH]cc(C4CCN(Cc5ccccc5)CC4)c3n2)c1` [Example 26, 3-[7-(1-benzylpiperidin-4-yl)-4-morpholin-4-yl-5H-pyrrolo[3,2-d]pyrimidin-2-yl]phenol]: 890 nM.
In the case of `Oc1cccc(-c2nc(N3CCOCC3)c3[nH]cc(C4CCN(Cc5ccc(Cl)nc5)CC4)c3n2)c1` [Example 35, 3-(7-{1-[(6-chloropyridin-3-yl)methyl]piperidin-4-yl}-4-morpholin-4-yl-5H-pyrrolo[3,2-d]pyrimidin-2-yl)phenol], half-maximal inhibition at human TOR (IC50) was put at 735 nM.
Take `Cn1ccc2nc(-c3cccc(CO)c3)nc(N3CCOCC3)c21` [Example 45, [3-(5-methyl-4-morpholin-4-yl-5H-pyrrolo[3,2-d]pyrimidin-2-yl)phenyl]methanol]: the results for the IC50 at human TOR and at PI3 Kinase γ were > 4000 nM and 8110 nM, respectively.
On to `Cn1cc(CN2CCCC2)c2nc(-c3cccc(CO)c3)nc(N3CCOCC3)c21` [Example 47, {3-[5-methyl-4-morpholin-4-yl-7-(pyrrolidin-1-ylmethyl)-5H-pyrrolo[3,2-d]pyrimidin-2-yl]phenyl}methanol], for which the IC50 at human TOR was > 4000 nM; against PI3 Kinase γ, > 10000 nM.
